Measured values from patent US20230097553A1 (priority 2020, published 2023).
Values joined by “and” are separate entries in the source; they are usually repeats but may differ in a detail not shown here. Equal values may be shown once. Read-outs that look alike come from different tables or passages of the source.

What was measured:
[1] = tested on: 2019-nCoV (2019BetaCoV/Wuhan/WIV04/2019 strain); assay: microbe, parasite or virus in culture; type: cell-based
Ebola virus replicon = assay: microbe, parasite or virus in culture; type: cell-based; conditions: for IC50: Zaire ebolavirus
[2] = tested on: avian influenza virus A/GuangZhou/99 (H9N2); assay: organism not typed; type: cell-based
in vitro = conditions: Syrian hamster
[3] = Antiviral activity in combination with other antiviral drugs; conditions: combined with lopinavir, ritonavir, ribavirin, remdesivir, oseltamivir, tamiflu, lanimivir, peramivir, chloroquine
[4] = tested on: influenza virus A/WSN/33 (H1N1); design: species or system BALB/c female mice; conditions: mouse, in vivo
COVID-19 [5] = assay: Compassionate use in small-scale (10 cases) COVID-19 patients; type: in vivo, human
COVID-19 [6] = assay: Compassionate use in large-scale (132 cases) COVID-19 patients; type: in vivo, human; conditions: patients who took leflunomide within 18 days of admission
MDCK cells = conditions: dog
[7] = Drug toxicity by CellTiter-Glo (CC50), 2019-nCoV host cells; conditions: African green monkey, Vero E6 cells
[8] = Severe acute respiratory syndrome coronavirus 2, Vero C1008, 48 h

C/C(O)=C(\C#N)C(=O)Nc1ccc(C(F)(F)F)cc1 [Teriflunomide, teriflunomide]
SI [1]: 141.75 | IC50 [1, 8]: 6 µM | IC50 ([1]; Severe acute respiratory syndrome coronavirus 2, Vero C1008, read-out: drug concentration at which inhibitory efficiency on virus replication reaches 50%): 1.62 µg/mL | SI (Ebola virus replicon): 32.26 | IC50 (Ebola virus replicon; BSR-T7/5, 24 h): 3.41 µM | IC50 (Ebola virus replicon; BSR-T7/5, read-out: drug concentration at which inhibitory efficiency on virus replication reaches 50%): 0.923 µg/mL | SI [2]: 53.13 | IC50 ([2]; MDCK): 3.36 µM | IC50 ([2]; unidentified influenza virus, H9N2, MDCK, read-out: drug concentration at which inhibitory efficiency on virus replication reaches 50%): 0.9 µg/mL | CC50 (in vitro): 110 µM

Cc1oncc1C(=O)Nc1ccc(C(F)(F)F)cc1 [Leflunomide, leflunomide]
SI [1]: 21.19 | IC50 [1, 8]: 41.5 µM | SI (Ebola virus replicon): 10.66 | IC50 (Ebola virus replicon; BSR-T7/5, 24 h): 15.3 µM | SI [2]: 8.58 | IC50 ([2]; MDCK): 8.12 µM | therapeutic effects in combination with other antiviral drugs [3]: better therapeutic effects | mice rescued from death [4]: 50% and 100% | Time to negative conversion after treatment (COVID-19 [5]; leflunomide experimental group, Number of Patients 1): 4 days | Time to negative conversion after treatment (COVID-19 [5]; leflunomide experimental group, Number of Patients 3): 8 days | Time to negative conversion after treatment (COVID-19 [5]; leflunomide experimental group, Number of Patients 4): 5 days | CRP after treatment (COVID-19 [5]; leflunomide experimental group, n = 5, range (5-5), normal 0-10, P value 0.109 vs before): 5 mg/L | CRP before treatment (COVID-19 [5]; leflunomide experimental group, n = 5, range (7.8-120.6), normal 0-10): 37.4 mg/L | level of C-reactive protein (COVID-19 [5]; small-scale (10 cases), after leflunomide treatment): significantly reduced | time to negative conversion (median) (COVID-19 [5]; small-scale (10 cases), control group median 11 days, P=0.046): 5 days | time from taking leflunomide (LEF) to negative conversion (VC), median (COVID-19 [6]): 6.5 days | time from admission (AD) to negative conversion (VC), median (COVID-19 [6]; control group median 25 days): 16 days | CC50 (MDCK cells): 69.6 µM | CC50 (in vitro): 163 µM | CC50 at 72 h [7]: 879 µM
